# Data taken from US12486218B2, “Compounds advantageous in the treatment of central nervous system diseases and disorders” (AurimMed Pharma, Inc., priority 2008, dated 2025).
# Columns and labels:
# mice [1] = experiment: Minimal motor impairment (MID50), mice i.p.; details: mice, i.p.
# Description: (§2) The animal testing was performed according to methods known in the relevant art.
# mice [2] = experiment: Mouse formalin pain model; assay type: in vivo; details: 76 mg/kg i.p., at 0.5 hours
# CYP-450 1A2 = CYP-450 1A2 (Homo sapiens, UniProt P05177); experiment: In vitro human CYP-450 study, 1A2; assay type: in vitro ADME; details: human enzyme
# Chain of CYP-450 1A2 (P05177 whole entry): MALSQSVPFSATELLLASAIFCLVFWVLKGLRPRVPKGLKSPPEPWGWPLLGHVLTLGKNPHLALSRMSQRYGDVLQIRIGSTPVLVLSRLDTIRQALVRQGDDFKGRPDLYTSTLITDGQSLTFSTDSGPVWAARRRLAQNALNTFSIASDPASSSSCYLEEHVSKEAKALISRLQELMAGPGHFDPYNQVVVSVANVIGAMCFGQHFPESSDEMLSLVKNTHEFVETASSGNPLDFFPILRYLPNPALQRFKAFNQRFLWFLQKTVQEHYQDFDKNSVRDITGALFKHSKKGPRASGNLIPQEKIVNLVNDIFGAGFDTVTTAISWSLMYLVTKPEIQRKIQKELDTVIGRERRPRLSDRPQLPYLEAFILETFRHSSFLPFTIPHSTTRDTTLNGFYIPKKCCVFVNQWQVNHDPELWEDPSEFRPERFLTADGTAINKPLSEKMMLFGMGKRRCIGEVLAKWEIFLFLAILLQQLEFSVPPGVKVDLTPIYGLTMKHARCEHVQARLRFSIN
# Source text: (§1) On the other hand, it is an inhibitor for 2C19, 2D6, 2A6 and 2C9.
# mice [3] = experiment: Subcutaneous Metrazol Seizure threshold (s.c. MET) test, mice i.p.; assay type: in vivo; details: Mus musculus
# rats [4] = experiment: Pilocarpine-induced Status Epilepticus in Rats (prevention; intervention @ 30 min)
# Description: The animal testing was performed using the protocols developed in the Anticonvulsant Screening Program (ASP) at the National Institute of Neurological Disorders and Stroke (NINDS), National Institutes of Health (NIH).
# mice [5] = experiment: Audiogenic Seizure susceptible (AGS) test, mice i.p.; assay type: in vivo; details: Mus musculus, ip
# CYP-450 3A4 = CYP-450 3A4 (Homo sapiens, UniProt P08684); experiment: In vitro human CYP-450 study, 3A4; assay type: in vitro ADME; details: human enzyme
# Chain of CYP-450 3A4 (P08684 whole entry): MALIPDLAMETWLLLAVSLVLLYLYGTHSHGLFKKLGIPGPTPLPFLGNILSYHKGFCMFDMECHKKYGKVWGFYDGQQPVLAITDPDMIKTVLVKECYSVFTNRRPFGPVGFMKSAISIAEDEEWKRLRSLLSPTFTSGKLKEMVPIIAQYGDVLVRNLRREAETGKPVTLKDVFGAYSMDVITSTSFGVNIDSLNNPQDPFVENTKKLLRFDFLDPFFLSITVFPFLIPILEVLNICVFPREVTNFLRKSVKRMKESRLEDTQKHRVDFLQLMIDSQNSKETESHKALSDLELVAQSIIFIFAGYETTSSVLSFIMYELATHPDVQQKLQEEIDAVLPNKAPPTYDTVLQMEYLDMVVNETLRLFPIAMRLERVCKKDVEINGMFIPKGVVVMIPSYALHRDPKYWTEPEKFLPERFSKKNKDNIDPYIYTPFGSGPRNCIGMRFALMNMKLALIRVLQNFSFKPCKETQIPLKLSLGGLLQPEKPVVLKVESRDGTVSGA
# Source text: as §1
# mice [6] = experiment: 6 Hz (minimal clonic seizure) model, mice i.p.; assay type: in vivo; details: Mus musculus, ip; mice, i.p.; read-out: 6 Hz ED50
# in vivo = details: mouse, ip
# Description: as §2
# [7] = test system: type II SMA fibroblasts (GM03813); experiment: SMN protein localization, gem counting in type II SMA fibroblasts; assay type: cell-based; details: 100 nM-10 μM, 5 days
# Description: To validate the SMN2 promoter and exon 7 screens, the effects of compounds H, H (acid form), AY, F, BX, and BY were evaluated on the basis of expression and localization of SMN protein in type II SMA fibroblasts (GM03813). In a normal cell, SMN protein localized within the nucleus to discreet foci known as gems. In SMN-deficient SMA cells, the number of gems is greatly diminished. Although the function of gems is unknown, it is believed that they are somehow involved in the snRNP assembly function of SMN. Gem counting can, therefore, be considered an assay for SMN function.
# GM03813 fibroblasts were treated with different doses (100 nM-10 μM) of compounds H, H (acid form), AY, F, BX, and BY for 5 days. SMN immunostaining was then completed on these cells and the number of gems was counted in 100 randomly-selected nuclei. […] In fact, the gem counts at the highest dose of compound H approach those observed for carrier fibroblasts (GM03814). When compared against treatment with 1 μM D157495—a D156844 derivative, all of the compounds tested performed as well as or, even better than D157495.
# mice [8] = experiment: Maximal Electroshock Seizure (MES) test, mice i.p.; assay type: in vivo; details: Mus musculus, ip
# NMDA receptors = experiment: Electrophysiology, NMDA current; assay type: cell-based; details: at 100 μM [+glycine (1 μM)], holding potential −70 mV
# Source text: The mechanisms of action of many currently marketed anticonvulsant drugs are not fully understood. Although numerous molecular targets exist wherein anticonvulsants may exert an effect, the final common pathway appears to be through modulation of voltage-gated and/or neurotransmitter-gated ion channels. Thus, the common link among the various proposed mechanisms involves the ability of an anticonvulsant to modulate ion channel function. Presently, a number of prototype anticonvulsants are thought to exert their action (at least in part) by reducing sustained, high-frequency repetitive firing of action potentials by modulating voltage-dependent sodium (Na+) channels. The effect of promising candidate substances on voltage-gated Na+ channels can be assessed using state-of-the-art electrophysiological techniques.
# rats [9] = experiment: Preliminary Hippocampal Kindling Screening in rats (i.p.); assay type: in vivo; details: at 100 mg/kg
# rats [10] = experiment: Hippocampal Kindled Rats model; assay type: in vivo; details: Rattus norvegicus
# CYP-450 2D6 = CYP-450 2D6 (Homo sapiens, UniProt P10635); experiment: In vitro human CYP-450 study, 2D6; assay type: in vitro ADME; details: human enzyme
# Chain of CYP-450 2D6 (P10635 whole entry): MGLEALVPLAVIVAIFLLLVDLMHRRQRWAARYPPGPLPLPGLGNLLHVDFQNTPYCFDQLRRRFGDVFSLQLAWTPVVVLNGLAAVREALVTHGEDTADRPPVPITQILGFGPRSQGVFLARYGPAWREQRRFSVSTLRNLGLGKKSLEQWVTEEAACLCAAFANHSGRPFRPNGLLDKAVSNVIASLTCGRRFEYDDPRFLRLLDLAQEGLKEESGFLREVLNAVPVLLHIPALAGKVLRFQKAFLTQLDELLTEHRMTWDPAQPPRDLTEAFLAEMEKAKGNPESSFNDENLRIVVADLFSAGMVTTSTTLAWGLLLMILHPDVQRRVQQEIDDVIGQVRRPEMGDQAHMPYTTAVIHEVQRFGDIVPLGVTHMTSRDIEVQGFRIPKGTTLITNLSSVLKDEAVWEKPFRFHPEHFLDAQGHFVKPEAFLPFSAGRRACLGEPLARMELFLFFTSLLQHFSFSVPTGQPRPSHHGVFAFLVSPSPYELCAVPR
# Source text: as §1
# [11] = test system: dopaminergic neurons of striatum and Substantia Nigra pars compacta; experiment: MPTP-treated mice, immunohistochemical analysis (tyrosine hydroxylase); assay type: in vivo; details: two weeks of oral treatment
# Description: FIGS. 28A and 28B illustrate immunohistochemical analysis of the brains of mice treated with MPTP. As mentioned above, MPTP causes Parkinson's-like symptoms by destroying dopaminergic neurons in the substantia nigra of the brain. Loss of dopaminergic neurons leads to the loss of the neurotransmitter dopamine and the onset of Parkinson's symptoms. In these tests, tyrosine hydroxylase (TH) levels were measured in the Striatum (St) (FIG. 28A) and TH+ dopaminergic neurons in the Substantia Nigra pars compacta (SNpc) were counted (FIG. 28B) to assess the recovery effect of compound BX treatment from chronic MPTP-induced damage.
# [12] = test system: identified target proteins; experiment: Protein profiling using Mass spectrometry after compound BX treatment; details: protein amount, preliminary
# Source text: The data presented below in Tables 10-12 illustrate various studies aimed at identifying the targets that compound BX acts upon. Table 10 illustrates preliminary protein profiling data using Mass spectrometry to identify up/down-regulation by compound BX treatment among numerous identified target proteins. In the results shown in Table 10, superoxide dismutase (SOD) protein amount is increased almost two-fold. This is a significant increase in SOD. SOD protein, which is an enzyme that alternately catalyzes the dismutation (or partitioning) of the superoxide (O2^−) radical into either ordinary molecular oxygen (O2) or hydrogen peroxide (H2O2), is strongly associated with amyotrophic lateral sclerosis (ALS). Mutations in the first SOD enzyme (SOD1) can cause familial ALS. Onset of ALS is strongly associated with oxidative stress in the neural tissue of affected individuals.
# [13] = Rattus norvegicus, 0.5 h, read-out: Intervention @ 30 min, Protection
# [14] = Rattus norvegicus, read-out: Prevention, Protection
smiles,measurement,setting,value
"CC(CC(N)=O)c1ccc(OC(F)(F)F)cc1 (racemic) [Compound H, 3-[4-(trifluoromethoxy)-phenyl]butyramide]",MID50 (median minimal motor impairment dose),mice [1],158.98 mg/kg
same,"pain response, acute phase",mice [2],63 % of the control
same,"pain response, inflammatory phase",mice [2],63 % of the control
same,inhibition of CYP-450 1A2,CYP-450 1A2,either no or only a remote possibility of inhibiting
same,ED50,"mice [3]; mice i.p., @ 0.5 hrs",91.4 mg/kg
same,ED50,"mice [3]; mice, i.p.",91.4 mg/kg
same,responders at 176 mg/kg,rats [4]; [13],97%
same,responders at 200 mg/kg,rats [4]; [14],86%
same,ED50,mice [5]; mice,22.5 mg/kg
same,ED50,"mice [5]; mice i.p., @ 0.5 hr",22.5 mg/kg
same,inhibition of CYP-450 3A4,CYP-450 3A4,either no or only a remote possibility of inhibiting
same,ED50,mice [6],55 mg/kg
same,TD50,in vivo,159 mg/kg
same,"gem counts (SMN immunostaining, 100 nuclei)",[7],increase gem counts in a dose-dependent manner
same,relative potency in increasing gem counts,[7],most potent
same,ED50,mice [8]; mice,76.1 mg/kg
same,ED50,"mice [8]; mice i.p., @ 0.5 hrs",76.1 mg/kg
same,NMDA current (enhancement),NMDA receptors,119±7 % of control
same,"seizure score, Preliminary Hippocampal Kindling Screening",rats [9],zero
same,ED50,rats [10],61 mg/kg
same,inhibition of CYP-450 2D6,CYP-450 2D6,inhibitor
"C[C@H](CC(N)=O)c1ccc(OC(F)(F)F)cc1 (single isomer, unassigned) [Compound BX, R-(−)-3-(4-Trifluoromethoxy-phenyl)butyramide]","pain response, acute phase",mice [2],84 % of the control
same,"pain response, inflammatory phase",mice [2],41 % of the control
same,ED50,"mice [3]; mice i.p., @ 1.0 hr",51.4 mg/kg
same,responders at 155 mg/kg,rats [4]; [13],50%
same,responders at 100 mg/kg,rats [4]; [14],100%
same,effect on convulsive SE,"rats [4]; rats, 200 mg/kg, administered 30′ after the first stage 3 seizure",halted the convulsive SE
same,ED50,"mice [5]; mice i.p., @ 0.5 hr",16.5 mg/kg
same,TD50 at 0.25 hr,in vivo,104 mg/kg
same,TH+ dopaminergic neurons in the Substantia Nigra pars compacta,[11],stimulated the regrowth of TH+ dopaminergic neurons
same,tyrosine hydroxylase (TH) levels in the Striatum,[11],induce recovery from MPTP-induced damage in striatum
same,"gem counts (SMN immunostaining, 100 nuclei)",[7],increase gem counts in a dose-dependent manner
same,ED50,"mice [8]; mice i.p., @ 1.0 hr",47.9 mg/kg
same,"Compound Ratio, 14-3-3 Protein Gamma (P61983)",[12],1.15
same,"Compound Ratio, Elongation factor 1-alpha 1 (P62630)",[12],0.59
same,"Compound Ratio, Eukaryotic translation initiation factor 5A-1 (Q3T1J1)",[12],1.64
same,"Compound Ratio, Glycine tRNA ligase (G3V7G8)",[12],0.67
same,"Compound Ratio, Heat Shock Protein HSP 90-alpha (P82995)",[12],0.77
same,"Compound Ratio, Heat shock 70 kDA protein (F1LRV4)",[12],0.73
same,"Compound Ratio, Hypoxia up-regulated protein (Q63617)",[12],0.58
same,"Compound Ratio, Malate Dehydrogenase (P04636)",[12],0.68
same,"Compound Ratio, Proteasome subunit alpha type-2 (P17220)",[12],0.35
same,"Compound Ratio, Superoxide dismutase [CU—Zn] (P07632)",[12],1.72
